{
  "source": "patent US11099176B2",
  "about": "(priority 2015, dated 2021)",
  "assay_type_in_all_cases": "binding",
  "key": {"[1]": {"tested_on": "Marinobacter sp. msLacBP6 conjugates (variants of Table 5)", "assay": "Affinity summary of msLacBP6 single-cysteine conjugates"}, "[2]": {"tested_on": "Marinobacter sp. msLacBP6 variant 187C, L70I, SEQ ID NO: 52, Badan conjugate", "assay": "Fluorescence titration of conjugate (affinity tuning)", "parameters": "key to appKd (alanine): nb: no binding"}, "[3]": {"tested_on": "Marinobacter sp. msLacBP6 variant 187C, F68L, SEQ ID NO: 49, Badan conjugate", "assay": "Fluorescence titration of conjugate (affinity tuning)", "parameters": "key to appKd (alanine): nb: no binding"}, "[4]": {"tested_on": "Marinobacter sp. msLacBP6 variant 187C, D220E, SEQ ID NO: 56, Badan conjugate", "assay": "Fluorescence titration of conjugate (affinity tuning)", "parameters": "key to appKd (alanine): nb: no binding"}, "[5]": {"tested_on": "Marinobacter sp. msLacBP6 variant 187C, L70I, SEQ ID NO: 52, Acrylodan conjugate", "assay": "Fluorescence titration of conjugate (affinity tuning)", "parameters": "key to appKd (alanine): nb: no binding"}, "[6]": {"tested_on": "Marinobacter sp. msLacBP6 187C mutants (variants of Table 7)", "assay": "Affinity summary of msLacBP6 187C affinity-tuning mutants", "conditions": "all mutants", "excerpt": "In the PCS we mutated F68 (F98 in ttLacBP1) and D220 (D250 in ttLacBP1). […] It could therefore be considered part of a secondary complementary surface layer (SCS). In the interface we mutated L70 (L100 in ttLacBP1), which is located at the periphery of the lactate-binding site, and forms a contact from the N- to the C-terminal domain across the inter-domain interface.\nBoth PCS and SCS mutations perturbed the spectral shapes of the lactate-mediated responses. […] These affinity-tuned sensors therefore provide a suitable set for clinical chemistry applications."}, "[7]": {"tested_on": "Marinobacter sp. msLacBP6 variant 187C, F68M, SEQ ID NO: 50, Acrylodan conjugate", "assay": "Fluorescence titration of conjugate (affinity tuning)", "parameters": "key to appKd (alanine): nb: no binding"}, "[8]": {"tested_on": "Marinobacter sp. msLacBP6 variant 187C, F68M, SEQ ID NO: 50, Badan conjugate", "assay": "Fluorescence titration of conjugate (affinity tuning)", "parameters": "key to appKd (alanine): nb: no binding"}, "[9]": {"tested_on": "Marinobacter sp. msLacBP6 variant 187C, D220E, SEQ ID NO: 56, Acrylodan conjugate", "assay": "Fluorescence titration of conjugate (affinity tuning)", "parameters": "key to appKd (alanine): nb: no binding"}, "[10]": {"tested_on": "Marinobacter sp. msLacBP6 variant 187C, F68L, SEQ ID NO: 49, Acrylodan conjugate", "assay": "Fluorescence titration of conjugate (affinity tuning)", "parameters": "key to appKd (alanine): nb: no binding"}},
  "data": [
    {"compound": "C[C@H](N)C(=O)O", "note": "[L-alanine]", "values": [
      {"measurement": "binding to L-alanine", "setting": "[1]", "value": "no binding"},
      {"measurement": "appKd (alanine)", "setting": "[2]", "value": "n/b"},
      {"measurement": "appKd (alanine)", "setting": "[3]", "value": "n/b"},
      {"measurement": "appKd (alanine)", "setting": "[4]", "value": "n/b"},
      {"measurement": "appKd (alanine)", "setting": "[5]", "value": "n/b"},
      {"measurement": "binding to L-alanine", "setting": "[6]", "value": "None of the mutants bound L-alanine"},
      {"measurement": "appKd (alanine)", "setting": "[7]", "value": "n/b"},
      {"measurement": "appKd (alanine)", "setting": "[8]", "value": "n/b"},
      {"measurement": "appKd (alanine)", "setting": "[9]", "value": "n/b"},
      {"measurement": "appKd (alanine)", "setting": "[10]", "value": "n/b"}
    ]}
  ]
}
